Data: the NIST ThermoML archive (doi:10.1021/je034076x)

How the values were obtained:
[1] = excess molar enthalpy (molar enthalpy of mixing); xn = mol fraction of the nth substance listed; conditions: 101.3 kPa, Liquid, Flow calorimetry
[2] = xn = mol fraction of the nth substance listed; conditions: 101.3 kPa, Liquid; for viscosity: Capillary tube (Ostwald / Ubbelohde) method; for speed of sound: Pulse-echo method; for mass density: Vibrating tube method

OCC(F)(F)F [2,2,2-trifluoroethanol] + C1CCOC1
Conditions	excess molar enthalpy [kJ/mol]	mass density [kg/m3]	speed of sound [m/s]	viscosity [mPa·s]
[1], 283.15 K, x2 = 0.053	-0.383	–	–	–
[1], 283.15 K, x2 = 0.107	-0.723	–	–	–
[1], 283.15 K, x2 = 0.212	-1.24	–	–	–
[1], 283.15 K, x2 = 0.316	-1.59	–	–	–
[1], 283.15 K, x2 = 0.417	-1.74	–	–	–
[1], 283.15 K, x2 = 0.517	-1.73	–	–	–
[1], 283.15 K, x2 = 0.618	-1.57	–	–	–
[1], 283.15 K, x2 = 0.717	-1.27	–	–	–
[1], 283.15 K, x2 = 0.81	-0.904	–	–	–
[1], 283.15 K, x2 = 0.908	-0.448	–	–	–
[1], 283.15 K, x2 = 0.954	-0.213	–	–	–
[1], 298.15 K, x2 = 0.053	-0.472	–	–	–
[1], 298.15 K, x2 = 0.107	-0.939	–	–	–
[1], 298.15 K, x2 = 0.212	-1.54	–	–	–
[1], 298.15 K, x2 = 0.316	-1.88	–	–	–
[1], 298.15 K, x2 = 0.417	-2	–	–	–
[1], 298.15 K, x2 = 0.517	-1.96	–	–	–
[1], 298.15 K, x2 = 0.618	-1.75	–	–	–
[1], 298.15 K, x2 = 0.717	-1.43	–	–	–
[1], 298.15 K, x2 = 0.81	-0.993	–	–	–
[1], 298.15 K, x2 = 0.908	-0.489	–	–	–
[1], 298.15 K, x2 = 0.954	-0.234	–	–	–
[1], 313.15 K, x2 = 0.053	-0.474	–	–	–
[1], 313.15 K, x2 = 0.107	-0.928	–	–	–
[1], 313.15 K, x2 = 0.212	-1.57	–	–	–
[1], 313.15 K, x2 = 0.316	-1.98	–	–	–
[1], 313.15 K, x2 = 0.417	-2.14	–	–	–
[1], 313.15 K, x2 = 0.517	-2.09	–	–	–
[1], 313.15 K, x2 = 0.618	-1.87	–	–	–
[1], 313.15 K, x2 = 0.717	-1.51	–	–	–
[1], 313.15 K, x2 = 0.81	-1.06	–	–	–
[1], 313.15 K, x2 = 0.908	-0.525	–	–	–
[1], 313.15 K, x2 = 0.954	-0.257	–	–	–
[2], 283.15 K, x2 = 0.1022	–	–	–	2.107
[2], 283.15 K, x2 = 0.1087	–	1336.89	897.7	–
[2], 283.15 K, x2 = 0.2018	–	–	–	1.578
[2], 283.15 K, x2 = 0.2084	–	1277.4	932.6	–
[2], 283.15 K, x2 = 0.299	–	1226.31	966.8	–
[2], 283.15 K, x2 = 0.3033	–	–	–	1.246
[2], 283.15 K, x2 = 0.4037	–	–	–	1.037
[2], 283.15 K, x2 = 0.4038	–	1171.02	1010.1	–
[2], 283.15 K, x2 = 0.4953	–	1125.37	1052.1	–
[2], 283.15 K, x2 = 0.5014	–	–	–	0.8927
[2], 283.15 K, x2 = 0.5967	–	1076.79	–	–
[2], 283.15 K, x2 = 0.6013	–	–	1104.4	–
[2], 283.15 K, x2 = 0.6036	–	–	–	0.7821
[2], 283.15 K, x2 = 0.7004	–	–	–	0.7023
[2], 283.15 K, x2 = 0.7048	–	1027.26	1161.1	–
[2], 283.15 K, x2 = 0.7958	–	–	1213.8	–
[2], 283.15 K, x2 = 0.8048	–	982.37	–	–
[2], 283.15 K, x2 = 0.8532	–	–	–	0.6208
[2], 283.15 K, x2 = 0.8868	–	946.79	–	–
[2], 283.15 K, x2 = 0.9033	–	–	–	0.5846
[2], 283.15 K, x2 = 0.9058	–	–	1283.2	–
[2], 283.15 K, x2 = 0.9657	–	913.1	1324.1	–
[2], 298.15 K, x2 = 0.0362	–	1358.26	–	–
[2], 298.15 K, x2 = 0.1022	–	–	–	1.467
[2], 298.15 K, x2 = 0.1041	–	1315.13	–	–
[2], 298.15 K, x2 = 0.1106	–	–	854.6	–
[2], 298.15 K, x2 = 0.2018	–	–	–	1.169
[2], 298.15 K, x2 = 0.2053	–	1255.19	–	–
[2], 298.15 K, x2 = 0.2095	–	–	885	–
[2], 298.15 K, x2 = 0.3019	–	–	917.9	–
[2], 298.15 K, x2 = 0.3031	–	1201.4	–	–
[2], 298.15 K, x2 = 0.3033	–	–	–	0.9632
[2], 298.15 K, x2 = 0.4018	–	1150.15	–	–
[2], 298.15 K, x2 = 0.4037	–	–	–	0.8286
[2], 298.15 K, x2 = 0.4065	–	–	959.4	–
[2], 298.15 K, x2 = 0.4986	–	1103.07	–	–
[2], 298.15 K, x2 = 0.5014	–	–	–	0.7228
[2], 298.15 K, x2 = 0.5076	–	–	1003.3	–
[2], 298.15 K, x2 = 0.5989	–	1055.77	–	–
[2], 298.15 K, x2 = 0.6036	–	–	–	0.6432
[2], 298.15 K, x2 = 0.6172	–	–	1055.8	–
[2], 298.15 K, x2 = 0.7004	–	–	–	0.5841
[2], 298.15 K, x2 = 0.7019	–	1009.19	–	–
[2], 298.15 K, x2 = 0.7123	–	–	1104.9	–
[2], 298.15 K, x2 = 0.7978	–	967.32	–	–
[2], 298.15 K, x2 = 0.8205	–	–	1164.5	–
[2], 298.15 K, x2 = 0.8532	–	–	–	0.5222
[2], 298.15 K, x2 = 0.899	–	924.33	–	–
[2], 298.15 K, x2 = 0.9033	–	–	–	0.4959
[2], 298.15 K, x2 = 0.9042	–	–	1216.3	–
[2], 313.15 K, x2 = 0.1022	–	–	–	1.057
[2], 313.15 K, x2 = 0.1024	–	1291.64	808.3	–
[2], 313.15 K, x2 = 0.1991	–	1234.96	834.3	–
[2], 313.15 K, x2 = 0.2018	–	–	–	0.8873
[2], 313.15 K, x2 = 0.3032	–	1178.51	868.4	–
[2], 313.15 K, x2 = 0.3033	–	–	–	0.7583
[2], 313.15 K, x2 = 0.3554	–	1151.61	886.4	–
[2], 313.15 K, x2 = 0.4037	–	–	–	0.6648
[2], 313.15 K, x2 = 0.4972	–	1082.56	942.6	–
[2], 313.15 K, x2 = 0.5014	–	–	–	0.5936
[2], 313.15 K, x2 = 0.596	–	1037.96	985.9	–
[2], 313.15 K, x2 = 0.6036	–	–	–	0.5356
[2], 313.15 K, x2 = 0.7004	–	–	–	0.4916
[2], 313.15 K, x2 = 0.7191	–	983.05	1045.5	–
[2], 313.15 K, x2 = 0.7922	–	952.13	1082.8	–
[2], 313.15 K, x2 = 0.8532	–	–	–	0.4431
[2], 313.15 K, x2 = 0.8937	–	909.37	1138.7	–
[2], 313.15 K, x2 = 0.9033	–	–	–	0.4239
